Columns and labels:
[1] = Complexing constant Log K in methanol at 25° C.; format: binding
Procedure: K is the complexing constant of a CEM and a […] cation in methanol, at 25° C., which is measured according to the standard method of isothermal calorimetric titration.

[2] = Liquid-liquid extraction of mono-salt saline solution
From the text: The extracting composition is obtained by solubilizing an amount of CEM and ASM in the selected fluidizing agent, dichloromethane CH2Cl2, dichlorobenzene or dichlorotoluene or any other fluidizing agent able to well solubilize the mixture CEM/ASM in order to obtain the searched final concentrations after solubilizing CEMs and ASMs in a minimum of 3 milliliters of fluidizing agent. If the selected fluidizing agent is also an ASM compound, so the selected ASM volume is at least 3 milliliters. The given concentrations of ASM2 and ASM9 are related to the added fluidizing agent volume and the concentrations of CEM are related to the added fluidizing agent+ASM volume. The extracting organic composition is then lightly heated so as to promote the solubilization of the organic compounds by means of a heat gun (temperature around 50 to 60° C.) for a few seconds (10 to 30 seconds) until a clear solution is obtained. The composition is thus left for 24 hours at room temperature so as to make sure that the obtained formulation is stable.
These sealed formulations are then orbitally stirred at 500 revolutions/minute for two hours after adding an equivalent volume of water which was distilled twice so as to allow a water saturation of the whole formulation and a pH control at the inlet and at the outlet (pH close to 7, or at least maintained after contact with the saturation water).
3 mL of the prepared extracting organic composition are then taken from the lower phase of the decanted diphasic mixture and transferred to a vial containing 3 mL of the water containing the one or more considered chloride salts (NaCl or others), then the vial is sealed and orbitally stirred (at 500 revolutions per minute) for 2 hours at room temperature (RT), that is to say between 20 and 25° C.
A verification is made to make sure that droplets in the range of 1-2 mm are really present during these stirrings in order to be sure that an equilibrium in the distribution of the considered chloride salt (NaCl or other) is achieved between both liquid phases at the end of stirring. The aspect of the organic and aqueous phases is clear and colorless or slightly turbid.
Once the 2-hour stirring is carried out, the stirring is stopped and the whole is left for decantation for about 10 minutes, at least until both phases are completely separated, at the temperature of the assay. Then, the upper aqueous phase is taken then stirred and diluted in order to analyze its salinity by a ion chromatography (a Metrohm™ device including a cation analyzing column and an anion analyzing column suitable for the ions and for the concentration of the salts which are searched for). Likewise, the chloride salt (NaCl or other) initial aqueous solution is also analyzed by this ion chromatography to determine its cation and chloride molar relative concentration before the extraction. All the extractions and analyses were duplicated.
The considered extracting composition comprises 0.1 mol/L of CEM1 and 3.52 mol/L of ASM2 in dichloromethane CH2Cl2, which was obtained as described above. The initial concentration of the considered salt in water, whether it is LiCl, NaCl, KCl, MgCl2, CaCl2, SrCl2 or BaCl2, is 0.1 mol/L.
After carrying out these 7 specific extractions (duplicated) of salts, the amounts of extracted cations in relative molar percentage before and after extraction at room temperature and at water/extracting formulation iso-volume are indicated in table I: […]

[3] = Regeneration (back-extraction) of the extracting composition charged with CaCl2
Procedure: Two samples of the extracting composition of example 4 with the highest content of CaCl2 at 20° C. were contacted with a saline water at 1 Mol/L of CaCl2 at room temperature to increase the salt charging level of the dissolved CEM2 cation extracting molecules, and thus to get close to their salt saturation level (0.1 Mol/L). Then, these two samples were contacted with an iso-volume of distilled water at 20° C. and stirred. One of the two diphasic samples was then heated up to 80° C. and kept under stirring. The initial salt charging level being assessed at 80 mMol/L, it appears that the latter drops to 15.27 mMol/L from the first regeneration step at 80° C. whereas, during regeneration at 20° C., the salt residual concentration is 29.3 mMol/L. FIG. 4 illustrates the results obtained throughout several serial steps of contacting the hydrophobic organic liquid phase charged with salts with an iso-volume of distilled water. […] In use, this advantage seems to be even more significant when a resin with a high CEM content, and thus a high salt content, is implemented.

[4] = 0.1M CEM + 3.52M ASM2 in CH2Cl2, initial salt 0.1 mol/L, Org./Water = 1, molar %

- Log K(Cs^+, MeOH, 25° C.) [1]: 2.8
- Log K(K^+, MeOH, 25° C.) [1]: 3.3
- Log K(Li^+, MeOH, 25° C.) [1]: 2.6
- Log K(Na^+, MeOH, 25° C.) [1]: 2.8
- Log K(Rb^+, MeOH, 25° C.) [1]: 2.6
SMILES: CCN(CC)C(=O)COc1c2cc(C(C)(C)C)cc1Cc1cc(C(C)(C)C)cc(c1OCC(=O)N(CC)CC)Cc1cc(C(C)(C)C)cc(c1OCC(=O)N(CC)CC)Cc1cc(C(C)(C)C)cc(c1OCC(=O)N(CC)CC)Cc1cc(C(C)(C)C)cc(c1OCC(=O)N(CC)CC)Cc1cc(C(C)(C)C)cc(c1OCC(=O)N(CC)CC)C2 [CEM2, 4-tert-butyl-Calix[6]arene hexakis(N,N-diethylacetamide)]
- Extraction rate at room temperature (RT), BaCl2 [2, 4]: 63.2%
- Extraction rate at room temperature (RT), CaCl2 [2, 4]: 57.8%
- Extraction rate at room temperature (RT), KCl [2, 4]: 25.4%
- Extraction rate at room temperature (RT), LiCl [2, 4]: 21.9%
- Extraction rate at room temperature (RT), MgCl2 [2, 4]: 13.5%
- Extraction rate at room temperature (RT), NaCl [2, 4]: 22.7%
- Extraction rate at room temperature (RT), SrCl2 [2, 4]: 63.8%
- Calcium to sodium extraction rate ([2]; solutions containing only one of these salts (example 3)): 2.54
- Salt residual concentration after regeneration ([3]; 0.1 Mol/L CEM2 + 1 Mol/L ASM9 in 1,2-dichlorobenzene, initial charge 80 mMol/L CaCl2, iso-volume distilled water, 20° C.): 29.3 mmol/L
- Salt charging level after the first regeneration step ([3]; 0.1 Mol/L CEM2 + 1 Mol/L ASM9 in 1,2-dichlorobenzene, initial charge 80 mMol/L CaCl2, iso-volume distilled water, 80° C.): 15.27 mmol/L
- Reduction in the number of necessary regeneration steps, hot regeneration ([3]; 80° C. versus 20° C., same CaCl2 overall back-extraction rate): 2 fold
